Experimental data: patent publication USRE37781E1, “Substituted cyclic carbonyls and derivatives thereof useful as retroviral protease inhibitors” (DuPont Pharmaceuticals Company, priority 1991, dated 2002)
Values after ≈ are worked out from the molar mass of the structure shown. Like-named read-outs stand apart in the source and are kept apart here.

Experiments:
HIV protease = target: T1, HIV protease (Human immunodeficiency virus type 1 group M subtype B, UniProt P04585); assay: biochemical; parameters: species or system HIV-1
T1 construct: plasmid containing HIV protease under the control of an inducible T7 promoter; made in house; host or cells: E. coli (inclusion bodies, T7 promoter)
Method: HIV Protease Inhibition Assay—Spectroscopic Method
Inclusion bodies were solubilized in 8M urea, 50 mM tris pH 8.0. Protease activity was recovered by dilution 20-fold into buffer containing 50 mM sodium acetate pH 5.5, 1 mM EDTA, 10% glycerol and 5% ethylene glycol. Enzyme was used at a final concentration of 1.0-10 ug/ml.
Stock solutions of 10 mM were prepared in DMSO.
All further dilutions were done in DMSO.

HIV-1 (RF) in MT-2 cells = assay: microbe, parasite or virus in culture; type: cell-based
Method in brief: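 Read-out: gag and pol viral RNA captured by 5′-biotinylated oligonucleotides on streptavidin-coated wells, detected with alkaline phosphatase-linked reporter oligonucleotides, calibrated against BH10 in vitro transcripts. Virus stocks (RF, MN, IIIB) come from H9 cultures; MT-2 host cells kept in RPMI 1640, 5% FCS.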

[1] = Human immunodeficiency virus 1, MT2, Table 1e, read-out: IC90
[2] = Table 1d, upper part, read-out: Ki
[3] = Human immunodeficiency virus 1, MT2, 24 h, Table 1d, upper part, read-out: IC90
[4] = second table headed Table 2A, read-out: Ki
[5] = Human immunodeficiency virus 1, MT2, Table 2A, read-out: IC90
[6] = Human immunodeficiency virus 1, MT2, second table headed Table 2A, read-out: IC90

## COCCOCO[C@H]1[C@@H](Cc2ccccc2)N(Cc2ccc3ccccc3c2)C(=O)N(Cc2ccc3ccccc3c2)[C@@H]1C(F)Cc1ccccc1 (some centres unmarked) [Example 8D]
HIV protease; Table 1e, read-out: Ki
  Ki: 10 to 1000 nM

## [N-]=[N+]=NC(Cc1ccccc1)C1C(O)C(Cc2ccccc2)N(Cc2ccc3ccccc3c2)C(=O)N1Cc1ccc2ccccc2c1 (centres unmarked) [Example 7Y]
HIV protease; Table 1e, read-out: Ki
  Ki: 10 to 1000 nM
HIV-1 (RF) in MT-2 cells; [1]
  IC90: > 100 µg/mL

## CC(C)CN1C(=O)N(CC(C)C)C(Cc2ccccc2)C(O)C(O)C1Cc1ccccc1 (centres unmarked) [Example 1AO]
HIV protease; Table 1a, read-out: Ki
  Ki: 10 to 1000 nM

## O=C1N(Cc2ccc3ccccc3c2)C(Cc2ccccc2)C2OS(=O)OC2C(Cc2ccccc2)N1Cc1ccc2ccccc2c1 (centres unmarked) [Example 7M]
HIV protease; [2]
  Ki: < 10 nM
HIV-1 (RF) in MT-2 cells; [3]
  IC90: < 10 µg/mL

## CS(=O)(=O)OC1C(O)C(Cc2ccccc2)N(Cc2ccc3ccccc3c2)C(=O)N(Cc2ccc3ccccc3c2)C1Cc1ccccc1 (centres unmarked) [Example 7o]
HIV protease; [2]
  Ki: 10 to 1000 nM
HIV-1 (RF) in MT-2 cells; [3]
  IC90: < 10 µg/mL

## O=C1N(Cc2ccc(F)cc2)C(Cc2ccccc2)C(O)C(O)C(Cc2ccccc2)N1Cc1ccc(F)cc1 (centres unmarked) [Example 2E]
HIV protease; Table 2A, read-out: Ki
  Ki: < 10 nM
HIV protease; [4]
  Ki: < 10 nM
HIV-1 (RF) in MT-2 cells; [5]
  IC90: < 10 µg/mL
HIV-1 (RF) in MT-2 cells; [6]
  IC90: < 10 µg/mL

## CCCC1(OC)OC2C(O1)C(Cc1ccccc1)N(Cc1ccc3ccccc3c1)C(=O)N(Cc1ccc3ccccc3c1)C2Cc1ccccc1 (centres unmarked) [Example 7S]
HIV protease; [2]
  Ki: > 1000 nM
HIV-1 (RF) in MT-2 cells; [3]
  IC90: > 50 µg/mL

## O=C1N(Cc2ccccc2)C(Cc2ccccc2)C(O)C(O)C(Cc2ccccc2)N1CC1CC1 (centres unmarked) [Example 2F]
HIV protease; Table 2A, read-out: Ki
  Ki: < 10 nM
HIV protease; [4]
  Ki: < 10 nM
HIV-1 (RF) in MT-2 cells; [5]
  IC90: < 10 µg/mL
HIV-1 (RF) in MT-2 cells; [6]
  IC90: < 10 µg/mL

## COCCOCCOCCN1C(=O)NC(Cc2ccccc2)C(O)C(O)C1Cc1ccccc1 (centres unmarked) [Example 1R]
HIV protease; Table 1a, read-out: Ki
  Ki: > 1000 nM

## O=C1N(Cc2ccccn2)C(Cc2ccccc2)C(O)C(O)C(Cc2ccccc2)N1Cc1ccccn1 (centres unmarked) [Example 1AR]
HIV protease; Ki
  Ki: 10 to 1000 nM

## O=C1N(CC2CC2)C(Cc2ccccc2)C2OS(=O)OC2C(Cc2ccccc2)N1CC1CC1 (centres unmarked) [Example 7F]
HIV protease; [2]
  Ki: < 10 nM
HIV-1 (RF) in MT-2 cells; [3]
  IC90: < 10 µg/mL

## O=C1N(Cc2ccccc2)C(Cc2ccccc2)C(OCc2ccccc2)C2C(Cc3ccccc3)N12 (centres unmarked) [Example 21C]
HIV protease; Table 2j, read-out: Ki
  Ki: 10 to 1000 nM

## O=C1N(Cc2cccc(-c3noc(C(F)(F)F)n3)c2)[C@H](CCc2ccccc2)[C@@H](O)[C@@H](Cc2ccccc2)N1Cc1cccc(-c2noc(C(F)(F)F)n2)c1 [Example 8X]
HIV protease; Table 1e, read-out: Ki
  Ki: 10 to 1000 nM
HIV-1 (RF) in MT-2 cells; [1]
  IC90: 10 to 100 µg/mL (≈ 13.1 to 131 µM)

## O=C1N(CC2CC2)C(C(O)Cc2ccccc2)[C@@H](O)[C@@H](Cc2ccccc2)N1CC1CC1 (some centres unmarked) [Example 7Z]
HIV protease; Table 1e, read-out: Ki
  Ki: 10 to 1000 nM
HIV-1 (RF) in MT-2 cells; [1]
  IC90: < 10 µg/mL

## CN1C(=O)N(Cc2ccccc2)C(Cc2ccccc2)C(O)C(O)C1Cc1ccccc1 (centres unmarked) [Example 1AY]
HIV protease; Table 1a, read-out: Ki
  Ki: 10 to 1000 nM

## NC(=NO)c1cccc(CN2C(=O)N3C(Cc4ccccc4)C3C(O)C2Cc2ccccc2)c1 (centres unmarked) [Example 21H]
HIV protease; Table 2j, read-out: Ki
  Ki: 10 to 1000 nM
HIV-1 (RF) in MT-2 cells; Table 2j
  IC90: +++ (+++=<10 μg/mL)

## O=C1N(CC2CC2)C(Cc2ccccc2)C2OC(=S)OC2C(Cc2ccccc2)N1CC1CC1 (centres unmarked) [Example 7I]
HIV protease; [2]
  Ki: 10 to 1000 nM
HIV-1 (RF) in MT-2 cells; [3]
  IC90: < 10 µg/mL

## O=C1N(Cc2ccncc2)C(Cc2ccccc2)C(O)C(O)C(Cc2ccccc2)N1Cc1ccncc1 (centres unmarked) [Example 1AI]
HIV protease; Table 1a, read-out: Ki
  Ki: 10 to 1000 nM

## CC(C)CCCC(C)CCN1C(=O)NC(Cc2ccccc2)C(O)C(O)C1Cc1ccccc1 (centres unmarked) [Example 1Q]
HIV protease; Table 1a, read-out: Ki
  Ki: 10 to 1000 nM

## CC(C)=CCN1C(=O)N(C)C(Cc2ccccc2)C(O)C(O)C1Cc1ccccc1 (centres unmarked) [Example 1BD]
HIV protease; Table 1a, read-out: Ki
  Ki: 10 to 1000 nM

## C=CCN1C(=O)N(CC=C)C(Cc2ccccc2)C(O)C(O)C1Cc1ccccc1 (centres unmarked) [Example 1H]
HIV protease; Table 1a, read-out: Ki
  Ki: > 1000 nM

## CC(C)CCCC(C)CCN1C(=O)N(CCC(C)CCCC(C)C)C(Cc2ccccc2)C(O)C(O)C1Cc1ccccc1 (centres unmarked) [Example 1N]
HIV protease; Table 1a, read-out: Ki
  Ki: 10 to 1000 nM

## O=C1N(Cc2ccccc2)C(Cc2ccccc2)C(O)C(O)C(Cc2ccccc2)N1Cc1ccccc1 (centres unmarked) [Example 1I]
HIV protease; Ki
  Ki: > 1000 nM

## C=CCN1C(=O)N(CC=C(C)C)C(Cc2ccccc2)C(O)C(O)C1Cc1ccccc1 (centres unmarked) [Example 1AT]
HIV protease; Table 1a, read-out: Ki
  Ki: < 10 nM

## O=C1N(Cc2cccc(O)c2)C(Cc2ccccc2)C(O)C(Cc2ccccc2)N1Cc1cccc(O)c1 (centres unmarked) [Example 22A]
HIV protease; Table 2k, read-out: Ki
  Ki: 10 to 1000 nM

## C=CCN1C(=O)N(CC=C)C(Cc2ccccc2)C(O)C(O)C1Cc1ccccc1 (centres unmarked) [Example 1D]
HIV protease; Table 1a, read-out: Ki
  Ki: > 1000 nM
